Test results published in publication PMC9448386, “Discovery of novel conjugates of quinoline and thiazolidinone urea as potential anti-colorectal cancer agent” (Journal of Enzyme Inhibition and Medicinal Chemistry, 2022).

Tests used:
AXL = target: T1, AXL (Homo sapiens, UniProt P30530); assay: Mobility shift assay, AXL; assay type: biochemical; conditions: mean of two independent experiments, SD shown
T1 sequence (P30530 26-894): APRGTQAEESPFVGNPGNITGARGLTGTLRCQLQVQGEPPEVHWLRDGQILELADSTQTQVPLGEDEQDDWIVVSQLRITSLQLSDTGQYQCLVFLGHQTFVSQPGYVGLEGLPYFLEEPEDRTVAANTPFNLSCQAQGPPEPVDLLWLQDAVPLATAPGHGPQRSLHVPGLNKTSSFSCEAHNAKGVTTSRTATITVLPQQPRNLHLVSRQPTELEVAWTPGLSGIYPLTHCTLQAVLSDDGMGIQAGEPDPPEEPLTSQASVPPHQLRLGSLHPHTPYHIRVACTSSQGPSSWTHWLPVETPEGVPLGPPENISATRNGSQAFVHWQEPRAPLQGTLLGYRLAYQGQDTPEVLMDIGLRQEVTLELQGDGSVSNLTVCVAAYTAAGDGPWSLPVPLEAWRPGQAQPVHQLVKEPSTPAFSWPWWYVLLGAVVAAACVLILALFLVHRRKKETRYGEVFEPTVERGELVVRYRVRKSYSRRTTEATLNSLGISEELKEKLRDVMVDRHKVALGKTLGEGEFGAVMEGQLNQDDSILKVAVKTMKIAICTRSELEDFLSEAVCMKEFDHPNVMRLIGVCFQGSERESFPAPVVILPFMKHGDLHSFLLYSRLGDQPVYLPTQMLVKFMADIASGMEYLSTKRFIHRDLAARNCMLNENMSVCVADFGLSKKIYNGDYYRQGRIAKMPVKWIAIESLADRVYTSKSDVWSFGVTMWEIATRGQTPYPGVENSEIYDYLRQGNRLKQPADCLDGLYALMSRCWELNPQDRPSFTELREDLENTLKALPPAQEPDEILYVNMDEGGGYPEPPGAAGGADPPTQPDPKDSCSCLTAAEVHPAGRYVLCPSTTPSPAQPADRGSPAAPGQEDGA
Protocol: (§1) Kinase inhibitory activity against HGFR, MST1R, ABL, PDGFRβ, AXL, FLT3, RET, c-Src, and VEGFR-2 was evaluated by the mobility shift assay. Detailed operation could be found in our previous research.

HGFR = HGFR (Homo sapiens, UniProt P08581); assay: Mobility shift assay, HGFR kinase inhibition; assay type: biochemical; conditions: mean of two independent experiments
Sequence of HGFR (P08581 25-1390): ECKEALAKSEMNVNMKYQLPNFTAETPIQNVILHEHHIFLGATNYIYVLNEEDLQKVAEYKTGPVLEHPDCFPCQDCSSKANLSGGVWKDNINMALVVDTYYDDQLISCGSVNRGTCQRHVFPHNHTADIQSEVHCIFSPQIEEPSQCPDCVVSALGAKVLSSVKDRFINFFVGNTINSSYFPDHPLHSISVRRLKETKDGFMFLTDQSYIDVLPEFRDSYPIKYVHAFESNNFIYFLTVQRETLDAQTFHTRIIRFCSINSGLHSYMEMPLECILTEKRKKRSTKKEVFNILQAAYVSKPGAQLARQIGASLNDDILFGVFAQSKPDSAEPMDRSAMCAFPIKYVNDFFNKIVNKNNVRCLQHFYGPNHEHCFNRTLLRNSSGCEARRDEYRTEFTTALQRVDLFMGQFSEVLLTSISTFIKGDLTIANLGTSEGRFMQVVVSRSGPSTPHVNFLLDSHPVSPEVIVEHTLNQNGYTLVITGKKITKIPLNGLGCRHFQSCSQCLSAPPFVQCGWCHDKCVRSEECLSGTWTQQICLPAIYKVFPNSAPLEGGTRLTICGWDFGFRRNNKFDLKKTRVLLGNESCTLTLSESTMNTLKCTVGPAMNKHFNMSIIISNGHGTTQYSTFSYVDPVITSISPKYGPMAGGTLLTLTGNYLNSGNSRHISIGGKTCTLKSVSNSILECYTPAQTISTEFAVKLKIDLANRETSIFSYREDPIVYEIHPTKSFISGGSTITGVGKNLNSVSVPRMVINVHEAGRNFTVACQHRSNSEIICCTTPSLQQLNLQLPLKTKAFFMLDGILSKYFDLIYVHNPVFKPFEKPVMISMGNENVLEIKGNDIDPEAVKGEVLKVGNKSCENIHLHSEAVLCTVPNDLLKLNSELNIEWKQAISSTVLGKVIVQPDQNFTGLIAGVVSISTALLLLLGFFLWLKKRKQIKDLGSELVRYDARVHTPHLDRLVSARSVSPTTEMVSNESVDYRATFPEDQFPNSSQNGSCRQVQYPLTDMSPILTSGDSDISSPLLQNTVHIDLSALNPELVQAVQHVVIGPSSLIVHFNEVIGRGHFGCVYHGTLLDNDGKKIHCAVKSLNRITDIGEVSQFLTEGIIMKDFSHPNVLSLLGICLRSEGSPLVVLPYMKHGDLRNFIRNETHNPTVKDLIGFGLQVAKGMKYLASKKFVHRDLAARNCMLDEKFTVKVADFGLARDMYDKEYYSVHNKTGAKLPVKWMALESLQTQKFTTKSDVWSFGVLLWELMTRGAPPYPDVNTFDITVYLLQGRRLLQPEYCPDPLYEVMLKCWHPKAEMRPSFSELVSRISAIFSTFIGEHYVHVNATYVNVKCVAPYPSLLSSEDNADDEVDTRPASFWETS
Protocol: as §1

## COc1cc2c(Oc3ccc(NC(=O)NN4C(=O)CSC4c4c(F)cccc4F)cc3F)ccnc2cc1OC1CCN(CC(N)=O)CC1 (centres unmarked) [Compound 10a, 2–(4-((4–(4-(3–(2-(2,6-Difluorophenyl)-4-oxothiazolidin-3-yl)ureido)-2-fluorophenoxy)-6-methoxyquinolin-7-yl)oxy)piperidin-1-yl)acetamide]
AXL
  IC50: 950 ± 86 nM
HGFR
  IC50: 110 nM
